Source: ChEMBL document CHEMBL4825691, “Antimicrobial, modulatory, and antibiofilm activity of tt-farnesol on bacterial and fungal strains of importance to human health” (2021)
Converted amounts (≈) assume the structure as drawn.

Experiments:
Type in all cases: functional
[1] = test system: Staphylococcus aureus; assay: Antimicrobial activity against Staphylococcus aureus ATCC 29213 assessed assessed as reduction in bacterial growth at 1/4 times of drug MIC in the presence of vancomycin by microdilution method
[2] = test system: Streptococcus pyogenes; assay: Antimicrobial activity against Streptococcus pyogenes ATCC 19615 assessed assessed as reduction in bacterial growth at 1/8 times of drug MIC in the presence of Ampicillin by microdilution method
[3] = test system: Staphylococcus epidermidis; assay: Antibacterial activity against Staphylococcus epidermidis ATCC 12228 assessed as inhibition of bacterial growth incubated for 24 hrs by microdilution assay
[4] = test system: Pseudomonas aeruginosa; assay: Antibacterial activity against Pseudomonas aeruginosa ATCC 27853 assessed as inhibition of bacterial growth incubated for 24 hrs by microdilution assay
[5] = test system: Streptococcus agalactiae; assay: Antimicrobial activity against Streptococcus agalactiae ATCC 13813 assessed assessed as reduction in bacterial growth at 1/8 times of drug MIC in the presence of Oxacillin by microdilution method
[6] = test system: Streptococcus pyogenes; assay: Antibiofilm activity against drug-resistant Streptococcus pyogenes ATCC 19615 assessed as inhibition of biofilm formation incubated for 24 hrs by crystal violet staining based microtiter plate method
[7] = test system: Escherichia coli; assay: Antibacterial activity against Escherichia coli EIEC E20851 assessed as inhibition of bacterial growth incubated for 24 hrs by microdilution assay
[8] = test system: Streptococcus sobrinus; assay: Antimicrobial activity against Streptococcus sobrinus ATCC 27351 assessed assessed as reduction in bacterial growth at 1/4 times of drug MIC in the presence of Ampicillin by microdilution method
[9] = test system: Enterococcus faecalis; assay: Antimicrobial activity against Enterococcus faecalis ATCC 51299 assessed assessed as reduction in bacterial growth at 1/4 times of drug MIC in the presence of Teicoplanin by microdilution method
[10] = test system: Streptococcus agalactiae; assay: Antimicrobial activity against Streptococcus agalactiae ATCC 13813 assessed assessed as reduction in bacterial growth at 1/4 times of drug MIC in the presence of Oxacillin by microdilution method
[11] = test system: Staphylococcus aureus; assay: Antibacterial activity against Staphylococcus aureus ATCC 43300 assessed as inhibition of bacterial growth incubated for 24 hrs by microdilution assay
[12] = test system: Staphylococcus aureus; assay: Antibiofilm activity against drug-resistant Staphylococcus aureus MED 55 assessed as inhibition of biofilm formation incubated for 24 hrs by crystal violet staining based microtiter plate method
[13] = test system: Enterococcus faecalis; assay: Antibacterial activity against Enterococcus faecalis ATCC 51299 assessed as inhibition of bacterial growth incubated for 24 hrs by microdilution assay
[14] = test system: Shigella flexneri; assay: Antibacterial activity against Shigella flexneri CCCD S006 assessed as inhibition of bacterial growth incubated for 24 hrs by microdilution assay
[15] = test system: Escherichia coli; assay: Antibacterial activity against Escherichia coli EAEC I 4913 assessed as inhibition of bacterial growth incubated for 24 hrs by microdilution assay
[16] = test system: Staphylococcus epidermidis; assay: Ratio of MBC to MIC against Staphylococcus epidermidis 70 D
[17] = test system: Enterococcus durans; assay: Antimicrobial activity against Enterococcus durans BIO 0114 assessed assessed as reduction in bacterial growth at 1/8 times of drug MIC in the presence of Teicoplanin by microdilution method
[18] = test system: Staphylococcus epidermidis; assay: Bactericidal activity against Staphylococcus epidermidis 70 D assessed as bacterial killing incubated for 24 hrs by microdilution assay
[19] = test system: Proteus mirabilis; assay: Antibacterial activity against Proteus mirabilis ATCC 25933 assessed as inhibition of bacterial growth incubated for 24 hrs by microdilution assay
[20] = test system: Staphylococcus epidermidis; assay: Antimicrobial activity against Staphylococcus epidermidis 70 D assessed assessed as reduction in bacterial growth at 1/8 times of drug MIC in the presence of vancomycin by microdilution method
[21] = test system: Enterococcus faecalis; assay: Antibacterial activity against Enterococcus faecalis ATCC 6569 assessed as inhibition of bacterial growth incubated for 24 hrs by microdilution assay
[22] = test system: Enterococcus faecalis; assay: Ratio of MBC to MIC against Enterococcus faecalis ATCC 51299
[23] = test system: Escherichia coli; assay: Antibacterial activity against Escherichia coli ATCC 25922 assessed as inhibition of bacterial growth incubated for 24 hrs by microdilution assay
[24] = test system: Streptococcus sobrinus; assay: Ratio of MBC to MIC against Streptococcus sobrinus ATCC 27351
[25] = test system: Escherichia coli; assay: Antibacterial activity against Escherichia coli STEC 2C1 assessed as inhibition of bacterial growth incubated for 24 hrs by microdilution assay
[26] = test system: Staphylococcus aureus; assay: Antimicrobial activity against Staphylococcus aureus ATCC […] assessed assessed as reduction in bacterial growth at 1/2 times of drug MIC in the presence of Oxacillin by microdilution method
[27] = test system: Staphylococcus aureus; assay: Antimicrobial activity against Staphylococcus aureus MED 55 assessed assessed as reduction in bacterial growth at 1/8 times of drug MIC in the presence of vancomycin by microdilution method
[28] = test system: Enterococcus faecalis; assay: Antibacterial activity against Enterococcus faecalis ATCC 29212 assessed as inhibition of bacterial growth incubated for 24 hrs by microdilution assay
[29] = test system: Enterococcus faecalis; assay: Antibiofilm activity against drug-resistant Enterococcus faecalis ATCC 51299 assessed as inhibition of biofilm formation incubated for 24 hrs by crystal violet staining based microtiter plate method
[30] = test system: Escherichia coli; assay: Antibacterial activity against Escherichia coli EPEC E234969 assessed as inhibition of bacterial growth incubated for 24 hrs by microdilution assay
[31] = test system: Staphylococcus epidermidis; assay: Antimicrobial activity against Staphylococcus epidermidis ATCC 12228 assessed assessed as reduction in bacterial growth at 1/8 times of drug MIC in the presence of Oxacillin by microdilution method
[32] = test system: Streptococcus agalactiae; assay: Bactericidal activity against Streptococcus agalactiae ATCC 13813 assessed as bacterial killing incubated for 24 hrs by microdilution assay
[33] = test system: Streptococcus mutans; assay: Antimicrobial activity against Streptococcus mutans ATCC 25175 assessed assessed as reduction in bacterial growth at 1/4 times of drug MIC in the presence of Ampicillin by microdilution method
[34] = test system: Streptococcus sobrinus; assay: Antimicrobial activity against Streptococcus sobrinus ATCC 27351 assessed assessed as reduction in bacterial growth at 1/8 times of drug MIC in the presence of Ampicillin by microdilution method
[35] = test system: Escherichia coli; assay: Antibacterial activity against Escherichia coli ETEC 2589093 assessed as inhibition of bacterial growth incubated for 24 hrs by microdilution assay
[36] = test system: Streptococcus mutans; assay: Antibacterial activity against Streptococcus mutans ATCC 25175 assessed as inhibition of bacterial growth incubated for 24 hrs by microdilution assay
[37] = test system: Escherichia coli; assay: Antibacterial activity against Escherichia coli ATCC 35218 assessed as inhibition of bacterial growth incubated for 24 hrs by microdilution assay
[38] = test system: Enterococcus faecalis; assay: Bactericidal activity against Enterococcus faecalis ATCC 51299 assessed as bacterial killing incubated for 24 hrs by microdilution assay
[39] = test system: Serratia marcescens; assay: Antibacterial activity against Serratia marcescens ATCC 13880 assessed as inhibition of bacterial growth incubated for 24 hrs by microdilution assay; conditions: subsp. marcescens ATCC 13880
[40] = test system: Enterococcus durans; assay: Antimicrobial activity against Enterococcus durans BIO 0114 assessed assessed as reduction in bacterial growth at 1/4 times of drug MIC in the presence of Teicoplanin by microdilution method

CC(C)=CCC/C(C)=C/CC/C(C)=C/CO [FARNESOL]
MIC [1]: 2 µg/mL | MIC [2]: 0.063 µg/mL | MIC [3]: 32 µg/mL (≈ 144 µM) | MIC [4]: > 1020 µg/mL | MIC [5]: 0.25 µg/mL | MIC [6]: 16 µg/mL (≈ 72 µM) | MIC [7]: > 1020 µg/mL | MIC [8]: 0.125 µg/mL | MIC [9]: 1 µg/mL | MIC [10]: 0.25 µg/mL | MIC [11]: 128 µg/mL (≈ 576 µM) | MIC [12]: 2 µg/mL (≈ 8.99 µM) | MIC [13]: 128 µg/mL (≈ 576 µM) | MIC [14]: > 1020 µg/mL | MIC [15]: > 1020 µg/mL | Ratio [16]: 2 | MIC [17]: 1 µg/mL | MBC [18]: 128 µg/mL (≈ 576 µM) | MIC [19]: > 1020 µg/mL | MIC [20]: 2 µg/mL | MIC [21]: > 1020 µg/mL | Ratio [22]: >4 | MIC [23]: > 1020 µg/mL | Ratio [24]: 2 | MIC [25]: > 1020 µg/mL | MIC [26]: 1 µg/mL | MIC [27]: 2 µg/mL | MIC [28]: > 1020 µg/mL | MIC [29]: 128 µg/mL (≈ 576 µM) | MIC [30]: > 1020 µg/mL | MIC [31]: 0.25 µg/mL | MBC [32]: 32 µg/mL (≈ 144 µM) | MIC [33]: 0.5 µg/mL | MIC [34]: 0.125 µg/mL | MIC [35]: > 1020 µg/mL | MIC [36]: 128 µg/mL (≈ 576 µM) | MIC [37]: > 1020 µg/mL | MBC [38]: > 512 µg/mL | MIC [39]: > 1020 µg/mL | MIC [40]: 1 µg/mL
